Data: patent publication US8901177B2, “Method of treating bladder disorders” (Targacept, Inc., priority 2012, dated 2014)
Read-outs that look alike come from different tables or passages of the source.

Key:
human α3β4 channels = molecular target: T1, human α3β4 channels (Homo sapiens, UniProt P30926+P32297); assay: Use-dependent inhibition of human α3β4 channels expressed in CHO cells (Dynaflow electrophysiology); format: cell-based
T1 construct: host or cells: CHO cells
Protocol: There was an assumption that the dependence on the number of co-applications would be the most relevant to clinical concentrations, since upon the time of exposure in vivo, the number of open channels could reach substantial numbers; perhaps due to channel spontaneous opening, flickering, and endogenous transmitter release as a result of brain activity. All experiments were performed using a conventional Dynaflow (Cellectricon Inc.) electrophysiological system. Dynaflow settings: To achieve continuous exposure to the drug we used following Dynaflow chip loading. An example of standard chip loading for use-dependent experiments with example for 30 μM ACh and 0.1 μM of TC-05231 (racemic mecamylamine). For the following experiments, ACh always consisted of 30 μM and concentrations of compounds were, 0.03, 0.1, 0.3 and 1.0 (μM). FIG. 13 illustrates the settings.
Applications were performed by positioning the cell in front of channel #1 for 1 second, followed by channel #3, then back to channel #1 by rapidly moving the Dynaflow chip, which consisted of both the laminar flow from the channels and the entire bath solution. The additional channels between control and ACh-containing channel were used: (1) to provide the needed space for an additional washout to avoid contaminating the control channels with the agonist solution; and (2) to allow for the necessary amount of time for the Dynaflow stage to reach its optimum scanning speed.
3.1. Establishment of recording baseline: First, pipette with cells moved to channel #3. Then cells were exposed to ACh by moving cells to channel #1 for 1 second and back to channel #3. This movement of cells was repeated 10 times at 30 second intervals;
3.2. Collection data on use-dependent inhibition: After establishment of stable baseline, cells were moved to channel #6 and exposed to a test compound for 30 sec. Then cells were moved to channel #8 for 1 second and back to channel #6 for 30 seconds (total 10 times with intervals 30 seconds); and 3.3. To test reversibility of block (washout): repeat step 1. Note: with this chip setting, during repeated application of acetylcholine plus test compound, there was no interruption in application of compounds. For all calculations, peak current amplitude was normalized to the peak current amplitude evoked by the 10th application of acetylcholine. Experimental Results

[1] = racemic Inversine 2.5 mg BID, spinal cord injury subjects; cited from earlier work
NMDA receptor NR1a-NR2A = NMDA receptor NR1a-NR2A (Homo sapiens, UniProt Q05586+Q12879); assay: Glutamate-evoked currents at NR1a-NR2A receptors in Xenopus oocytes (two electrode voltage-clamp); format: cell-based; conditions: for recovery following wash-out: after sustained exposure
NMDA receptor NR1a-NR2A, sequence (Q12879 23-1464, other chains not shown): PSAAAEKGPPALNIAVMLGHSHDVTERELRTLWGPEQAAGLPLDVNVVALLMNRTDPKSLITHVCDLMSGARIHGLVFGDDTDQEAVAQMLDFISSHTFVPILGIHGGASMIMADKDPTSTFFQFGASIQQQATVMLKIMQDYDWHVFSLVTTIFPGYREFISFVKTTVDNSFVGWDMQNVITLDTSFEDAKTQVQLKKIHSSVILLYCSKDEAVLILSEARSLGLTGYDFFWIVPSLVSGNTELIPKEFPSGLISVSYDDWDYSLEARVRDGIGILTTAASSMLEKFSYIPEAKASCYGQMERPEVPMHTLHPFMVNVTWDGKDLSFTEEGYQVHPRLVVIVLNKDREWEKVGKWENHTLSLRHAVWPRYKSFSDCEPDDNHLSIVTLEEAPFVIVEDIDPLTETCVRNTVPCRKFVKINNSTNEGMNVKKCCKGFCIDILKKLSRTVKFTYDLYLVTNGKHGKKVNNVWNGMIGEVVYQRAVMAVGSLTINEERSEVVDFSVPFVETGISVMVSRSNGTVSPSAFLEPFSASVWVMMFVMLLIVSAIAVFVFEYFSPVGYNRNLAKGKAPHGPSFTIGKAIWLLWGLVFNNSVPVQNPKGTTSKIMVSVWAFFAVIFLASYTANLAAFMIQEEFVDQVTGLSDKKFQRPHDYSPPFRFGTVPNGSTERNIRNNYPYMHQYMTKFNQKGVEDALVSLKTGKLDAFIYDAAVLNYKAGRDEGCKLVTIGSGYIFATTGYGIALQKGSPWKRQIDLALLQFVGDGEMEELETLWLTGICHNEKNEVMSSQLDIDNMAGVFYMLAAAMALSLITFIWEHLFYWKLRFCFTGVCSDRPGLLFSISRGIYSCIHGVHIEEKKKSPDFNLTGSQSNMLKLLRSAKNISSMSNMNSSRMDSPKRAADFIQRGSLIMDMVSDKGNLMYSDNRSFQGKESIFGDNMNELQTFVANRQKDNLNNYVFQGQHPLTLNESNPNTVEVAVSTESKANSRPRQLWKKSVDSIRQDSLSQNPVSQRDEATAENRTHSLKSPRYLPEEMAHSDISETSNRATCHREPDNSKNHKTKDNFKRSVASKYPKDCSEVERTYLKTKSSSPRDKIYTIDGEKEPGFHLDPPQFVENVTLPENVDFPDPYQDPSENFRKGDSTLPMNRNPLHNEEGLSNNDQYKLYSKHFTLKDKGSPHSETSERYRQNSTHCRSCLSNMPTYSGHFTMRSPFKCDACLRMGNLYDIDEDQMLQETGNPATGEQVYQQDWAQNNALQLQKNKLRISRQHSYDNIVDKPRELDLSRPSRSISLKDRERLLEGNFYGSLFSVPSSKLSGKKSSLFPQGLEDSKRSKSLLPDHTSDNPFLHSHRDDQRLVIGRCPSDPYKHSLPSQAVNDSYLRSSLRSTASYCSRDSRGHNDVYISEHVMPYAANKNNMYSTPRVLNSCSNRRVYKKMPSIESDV
Protocol: All experiments were carried out at receptors expressed in Xenopus oocytes using the method of cDNA expression. Currents evoked by glutamate were recorded using the standard two electrode voltage-clamp configuration (TVEC). Xenopus oocytes were prepared and injected using standard procedures.
Briefly, ovaries are harvested from Xenopus Laevis females that have been deeply anesthetized and pithed following the animal rights rule from the Geneva canton. A small piece of ovary is isolated for immediate preparation while the remaining part is placed at 4° C. in a sterile Barth solution containing in mM NaCl 88, KCl 1, NaHCO3 2.4, HEPES 10, MgSO4.7H2O 0.82, Ca(NO3)2.4H2O 0.33, CaCl2.6H2O 0.41, at pH 7.4, and supplemented with 20 μg/ml of kanamycine, 100 unit/ml penicillin and 100 μg/ml streptomycin. On the second day following dissociation, oocytes are injected with 2 ng of cDNA per oocyte containing the NR1a-NR2A or NR1a-NR2B using an automated injector (Hogg et al., J. Neurosci. Methods, 2008). […] Cells were held at −80 mV. Data were filtered at 10 Hz, captured at 100 Hz and analyzed using HiQ proprietary data acquisition and analysis software running under Matlab (Mathworks Inc.).
Oocytes expressing the NR1a-NR2A or NR1a-NR2B receptors were challenged at periodic intervals with a glutamate test pulse. Test drug was then applied during a sustained period and its effects monitored by measuring the amplitude and time course of the glutamate evoked currents.
Experiments were carried out with the NR1a-NR2A and NR1a-NR2B at least in triplicate. Positive reference compounds (ketamine and MK-801) were tested using the same protocol.
To further evaluate effects of TC-5214, experiments using sustained exposure to this compound followed by a recovery period were carried out at NR1a-NR2A and NR1a-NR2B receptors. Measurements were made with (nM) 0, 3, 10, 30, 100, 300, TC-5214 and recovery monitored during 10 minutes. In addition, the same experimental protocol will be used with cells in control conditions to assess the stability of the measurements. Effects were measured in at least three cells.
A use-dependent protocol was used to identify non-competitive inhibition of the receptors. Cells expressing the NMDA receptors were tested for their sensitivity to TC-5214 at 30 nM, using the same protocol as described above. Cells from the same batch were tested in parallel using the same incubation time with an identical concentration of TC-5214 (30 nM) but in absence of pulses during the incubation time with the compound. Two glutamate pulses were applied at the end of the incubation time, and recovery monitored as for the control conditions.

[2] = tested on: bladder function in conscious rats; assay: Intravesical model in conscious rats, first study (UROsphere), cystometry; format: in vivo, rat; conditions: tolterodine 10 μM, TC-5213 1 and 10 μM, hexamethonium 10 μM, TC-5214 0.1, 1 and 10 μM
Description: (1) In a first study (performed by UROsphere), female Sprague Dawley rats (200-270 g) from Charles River France, housed in 3-4 rats per cage were anesthetized with isoflurane (1.5-3%). […], a polyethylene catheter was implanted in the bladder through the dome and exteriorized at the scapular level. Each rat was housed individually after surgery. The cystometry is depicted in FIG. 2. This is the first known experiment using the intravesical model in conscious rats to test dexmecamylamine for potential efficacy in treating OAB.
The effects of dosing dexmecamylamine (also referred to as TC-5214 and as TI-11179), at doses of 0.1, 1, and 10 μM are depicted in FIG. 4.
The effects of dosing hexamethonium (10 μM) and tolterodine (10 μM) are depicted in FIG. 5.

[3] = TC-5213 28-day repeated oral toxicity study in rats; format: in vivo, rat
Protocol: Eighty rats (40/sex) were assigned to 4 groups of 10/sex/group. Test article in purified water or water (vehicle) alone were administered once daily via oral gavage at a dose volume of 10 mL/kg. The dose levels were 0, 1, 10, and 50 mg/kg/day. Animals were given TC-5213-23 orally (gavage) for 28 days except those given the test article at 50 mg/kg from Day 1 to 7, followed by a dose of 40 mg/kg/day on the subsequent 21 days. The dose levels were calculated based on the free base form of the test article.

[4] = tested on: bladder function in anesthetized rats; assay: Intravesical model in anesthetized rats (increased bladder contraction frequency), cystometry; format: in vivo, rat; conditions: 10 μM intravesical
Protocol: Female Sprague Dawley rats (200-290 g) from Charles River France, housed in 3-4 rats per cage were anesthetized with urethane (1.2 g/kg) s.c., 3 mL/kg). A polyethylene catheter was implanted into the bladder through the dome. Ureters were tied and cut. Intravesical infusion periods with saline followed by an intravesical infusion period with one of the test compounds, hexamethonium (10 μM) or dexmecamylamine (1 and 10 μM), are depicted in FIG. 7.
The intravesical anesthetized rat model is a model of increased bladder contraction frequency. The model is a “simplified” well established model used to evaluate OAB agents, recognizing that there are decreased inputs from cortical centers. This is the first known experiment using the intravesical anesthetized rat model of increased bladder contraction frequency to test dexmecamylamine for potential efficacy in treating OAB.

[5] = tested on: nicotinic receptors expressed in rat urinary bladder epithelial cells; conditions: intravesical; nicotine 0.05 and 1 μM, hexamethonium 10 and 100 μM, choline 10 and 100 μM; cited from earlier work
[6] = 50 mg/kg/day oral, first week, after three to seven doses

T1 sequence (P32297 32-505): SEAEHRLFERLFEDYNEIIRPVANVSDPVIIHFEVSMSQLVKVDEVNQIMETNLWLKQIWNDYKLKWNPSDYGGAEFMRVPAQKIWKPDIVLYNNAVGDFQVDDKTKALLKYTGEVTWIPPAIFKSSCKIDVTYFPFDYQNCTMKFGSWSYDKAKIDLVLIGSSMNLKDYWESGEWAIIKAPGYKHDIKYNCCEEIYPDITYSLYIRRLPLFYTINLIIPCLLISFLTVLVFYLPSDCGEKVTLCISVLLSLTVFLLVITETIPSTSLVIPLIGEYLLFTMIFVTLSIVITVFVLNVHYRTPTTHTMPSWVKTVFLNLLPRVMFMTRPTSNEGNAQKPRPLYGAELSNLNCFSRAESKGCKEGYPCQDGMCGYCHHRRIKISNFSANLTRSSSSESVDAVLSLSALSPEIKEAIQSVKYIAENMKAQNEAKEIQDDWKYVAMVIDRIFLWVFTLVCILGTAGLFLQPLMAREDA
T1 sequence (P30926 22-498): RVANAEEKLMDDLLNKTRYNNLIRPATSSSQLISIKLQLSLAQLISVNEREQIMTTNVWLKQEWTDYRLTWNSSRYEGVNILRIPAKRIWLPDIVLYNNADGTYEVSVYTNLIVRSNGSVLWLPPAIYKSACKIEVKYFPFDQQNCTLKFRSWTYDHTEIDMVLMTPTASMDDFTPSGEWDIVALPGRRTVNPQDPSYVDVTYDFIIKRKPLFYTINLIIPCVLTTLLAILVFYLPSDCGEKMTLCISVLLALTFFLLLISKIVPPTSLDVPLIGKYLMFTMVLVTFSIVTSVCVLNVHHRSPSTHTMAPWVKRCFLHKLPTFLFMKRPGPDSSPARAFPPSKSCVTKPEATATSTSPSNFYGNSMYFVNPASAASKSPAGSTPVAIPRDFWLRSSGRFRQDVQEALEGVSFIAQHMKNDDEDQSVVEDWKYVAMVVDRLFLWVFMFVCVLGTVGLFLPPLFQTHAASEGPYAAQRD

CNC1(C)C2CCC(C2)C1(C)C.Cl (racemic) [TC-5231, N,2,3,3-tetramethylbicyclo[2.2.1]heptan-2-amine hydrochloride, reference compound]
Inhibition by (%) (human α3β4 channels; 100 nM compound, after 10 co-applications of 30 uM Ach and compound, hydrochloride): 25% ± 7%
activity at 0.03 µM (human α3β4 channels; CHO, 30 nM compound + 30 μM ACh, successive grid rows = co-applications 1 to 10, control = 100, read-out: peak current amplitude normalized to 10th ACh application, use-dependent inhibition box): 99.3%
activity at 0.1 µM (human α3β4 channels; CHO, 100 nM compound + 30 μM ACh, successive grid rows = co-applications 1 to 10 at 30 s intervals, control = 100, read-out: peak current amplitude normalized to 10th ACh application, use-dependent inhibition box): 94.5%
inhibition at 0.1 µM (human α3β4 channels; CHO, 100 nM compound with acetylcholine, read-out: inhibition of human α3β4 receptor (asymptotes to the curve, FIG. 14)): 20%
inhibition at 0.1 µM (human α3β4 channels; CHO, 100 nM compound, after 10 co-applications of 30 uM Ach and compound, read-out: Inhibition by (%)): 24.8%
recovery (%) (human α3β4 channels; after 100 nM compound, following 10 application of Ach (30 uM) alone): 105% ± 11%
recovery / persistence of inhibition after wash out (human α3β4 channels; after 30 and 100 nM compound, agonist alone): full recovery
bladder electric potential (amplitude of contraction) [1]: decrease in bladder electric potential (amplitude of contraction)

C[C@]12N[C@H](Cc3ccccc31)c1ccccc12 [MK-801, reference compound]
recovery following wash-out (NMDA receptor NR1a-NR2A): little evidence of recovery
inhibition by positive control (NMDA receptor NR1a-NR2A; sustained exposure, glutamate test pulses): nearly complete inhibition

CN[C@]1(C)[C@H]2CC[C@H](C2)C1(C)C [TC-5213, exo-R-mecamylamine]
significant effects in cystometry [2]: significant effects
distended urinary bladder, full of urine, in early dead animals: females ([3]; 50 mg/kg/day oral): 2
distended urinary bladder, full of urine, in early dead animals: males ([3]; 50 mg/kg/day oral): 3
early deaths, females [3, 6]: 5/10
early deaths, males [3, 6]: 4/10
mortality, organ weight and microscopic changes ([3]; 50→40 mg/kg/day daily oral): resulted in mortality, organ weight and/or microscopic changes
No-Observed-Effect-Level (NOEL) ([3]; 28 days oral, males and females): 1 mg/kg/day
opthalmological examinations ([3]; rat, in vivo): No test article related changes
clinical pathology changes ([3]; rat, in vivo, 40 mg/kg/day): slight increases in neutrophils; slight decreases in lymphocyte and platelets; slight increases in ALT, AST, and calcium
organ weights at necropsy ([3]; rat, in vivo, 40 mg/kg/day): decreased organ weights of prostate gland, seminal vesicles and thymus

C[N+](C)(C)CCCCCC[N+](C)(C)C [hexamethonium]
changes in the frequency of bladder contraction [4]: meaningful changes
significant effects on nicotinic receptors expressed in rat urinary bladder epithelial cells [5]: significant effects

CNC1(c2ccccc2Cl)CCCCC1=O (stereo not shown) [ketamine, reference compound]
recovery following wash-out (NMDA receptor NR1a-NR2A): clear evidence for recovery

CN1CCCC1c1cccnc1 (stereo not shown) [nicotine]
significant effects on nicotinic receptors expressed in rat urinary bladder epithelial cells [5]: significant effects

Cc1ccc(O)c([C@H](CCN(C(C)C)C(C)C)c2ccccc2)c1 [tolterodine]
significant effects in cystometry [2]: significant effects
